According to article PMC4914250, “Cancer therapeutic approach based on conformational stabilization of mutant p53 protein by small peptides” (Oncotarget, 2016):

Legend:
H23 = assay: Crystal violet viability assay, H23; type: cell-based, human; set-up: key: score 0- no effect-white; score 6- as or more effective than positive control- black; settings: score 0-6 compared to positive control, 48 h
From the text: (§1) We also performed a similar analysis on ES2 ovarian cancer cells, which express endogenous mp53^S241F, compared to ES2 cells in which p53 was stably knocked out using CRISPR/Cas9 (ES2 p53KO Figure S1F), to control for specificity for mutp53 (Figure 2D). In ES2 cells, too, some of the peptides caused a significant reduction in cell numbers, more prominent in the mutp53 expressing cells than in their p53KO counterparts. […] Overall, we performed this analysis on several different mutp53-expressing human cancer cell lines, and the results are summarized in Table S3. Based on this comprehensive picture, we reduced the number of most promising candidate lead peptides to 30. These peptides were then synthesized with an 8 arginine C-terminal tail for enhanced delivery across cell membranes (pCAPs 130-160); for clarity, peptides are referred to by their original number, with an R for poly arginine (see Table S3).
(§2) Cells were cultured in 96 wells plates with 2500-4000 cells/well. Serial dilutions of different peptides were added and the plates incubated for additional 48 h at 37°C. Then medium was removed and cell viability was determined by staining the cells with crystal violet (0.05%) in methanol/PBS (1:5, v/v), for 10 min, followed by 3 washes with PBS. 10% acetic acid was added to each well for 10 min. OD was determined at 595 nm.

mutp53^R175H = assay: ELISA of mutp53 DNA binding (p53RE oligonucleotide), H1299-p53^R175H cell extract; type: biochemical, human; settings: for DNA H1299: score 0-6 compared to positive control, mutp53 DNA binding; for binding of mutp53 to the p53RE: H1299-p53^R175H extract, Figure 2B
Procedure: Cell extracts were added to ELISA plates coated with the indicated antibodies to allow mutp53 to react with the peptides and antibodies. αp53-HRP Ab was used for assessment of p53 levels. Numbers represent ratio of absorbance between the PAb1620 and PAb240 samples. All reads were normalized to the control […] reading of each extract. MCF7 (WTp53) and H1299-mutp53^A135V (tsp53) cells were used as positive controls for the WTp53 conformation (1620/240 ratio equals or exceeds 5:1). […] 96 well plates were coated with anti-p53 antibody, cell extracts containing p53 were reacted with oligonucleotides that contain a p53RE consensus binding site, labeled with biotin, in the presence or absence (NT) of test peptides. Streptavidin-HRP is used to quantify the amount of oligos in the well. TMB assay was performed to determine bound mutp53 levels (450nm). MCF7 and the H1299-mutp53^A135V(TS) cells serve as positive controls for WTp53. C.and D. - Bar graphs illustrating the effect of various selected peptides on mut-p53 dependent expression on cell viability. […] D, ES2 cells expressing endogenous mutp53 (blue bars) and ES2 cells knocked out for p53 by CRISPR construct (light blue bars). Cell lines were treated with selected peptides, Cis-platinum was used as positive control for cell death. 48 hours after treatment, cells were washed with PBS, and the remaining attached cells were stained with Crystal violet and washed 4 times with PBS. Stained cells were dissolved in 10% acetic acid and plates were taken for optical density measurement at […]. TEXT PRINTED IN THE PICTURE: (A) pCAP1: 0.87 | (A) pCAP2: 0.53 | (A) pCAP3: 0.59 | (A) pCAP4: 0.59 | (A) pCAP5: 0.60 | (A) pCAP6: 0.75 | (A) pCAP23: 1.06 | (A) pCAP24: 1.44 | (A) pCAP36: 1.25 | (A) pCAP47: 1.54 | (A) pCAP54: 1.54 | (A) pCAP60: 2.73 | (A) pCAP68: 2.22 | (A) pCAP83: 1.56 | (A) pCAP97: 2.45 DOUBTS OF THE COPYIST ABOUT THIS PICTURE: Panel A: the numbers over the bars are printed very small, rotated and blurred, so 3, 5, 6, 8 and 9 cannot be told apart with certainty. All values are best readings: pCAP1 0.87, pCAP2 0.53, pCAP3 0.59, pCAP4 0.59, pCAP5 0.60, pCAP6 0.75, pCAP23 1.06, pCAP24 1.44, pCAP36 1.25, pCAP47 1.54, pCAP54 1.54, pCAP60 2.73, pCAP68 2.22, pCAP83 1.56, pCAP97 2.45 / Panel A: the picture prints no measure with the numbers over the bars, so they are given as bare numbers / Panel A: numbers are also printed over the controls, which are not substances and are left out of lines. Best readings: NT 0.60, 60° 30'' 0.48, 60° 1' 0.37, 60° 3' 0.13, 60° 10' 0.05, MCF7 3.32, H1299TS 3.25
(§3) Next, we assessed the ability of our selected peptides to restore sequence-specific DNA binding to mutp53. To that end we employed an ELISA kit (R&D) in which cell extracts containing p53 are reacted with a biotinylated p53RE oligonucleotide and then incubated in wells coated with anti-p53 antibody, which is expected to trap the p53 protein and its associated p53RE DNA. The amount of p53RE retained in each well via p53 binding is quantified by incubation with streptavidin-HRP. […] Again, extracts of MCF7 and H1299-tsp53^A135V cells served as positive controls for WTp53 DNA binding activity. […] Importantly, there was substantial overlap between the peptides that stabilized the WT conformation (Figure 2A) and those that increased specific DNA binding (Figure 2B), further reinforcing the conclusion that those peptides stabilize mutp53 in a functional state. This was not seen with the randomly selected peptides 1-6 (black bars).
For these experiments, a commercial p53/DNA binding kit of “R&D” (Cat-DYC1355-5 Lot-1273366FA) was used, in accordance with manufacturer guide lines. Briefly, 96 well plates we coated with anti-p53 antibody overnight. Cell extracts containing p53 are reacted with an oligonucleotide that contains a p53 consensus binding site (provided in the kit), labeled with Biotin, in the presence or absence (NT) of test peptides. […]

[1] = tested on: mutp53 in SK3 cell extract; assay: ELISA of mutp53 DNA binding (p53RE oligonucleotide), SK3; type: biochemical, human; settings: score 0-6 compared to positive control
Procedure: as §3
For these experiments, a commercial p53/DNA binding kit of “R&D” (Cat-DYC1355-5 Lot-1273366FA) was used, in accordance with manufacturer guide lines. Briefly, 96 well plates we coated with anti-p53 antibody overnight. Cell extracts containing p53 are reacted with an oligonucleotide that contains a p53 consensus binding site (provided in the kit), labeled with Biotin, in the presence or absence (NT) of test peptides. WT p53 is expected to bind this DNA binding site as well as to the antibody coating the test wells of the plate. Excess p53 and oligos were washed away and streptavidin-HRP was used to quantify the amount of oligos in the well, which is proportional to the DNA bound by p53. TMB assay was performed to determine HRP (ES001-1L-K) levels (450nm).

MDA = assay: Crystal violet viability assay, MDA; type: cell-based, human; settings: score 0-6 compared to positive control, 48 h
From the text: as §1, §2

| Substance | Viability H23 (H23) | DNA H1299 (mutp53^R175H) | DNA SK3 [1] | Viability MDA (MDA) | binding of mutp53 to the p53RE (mutp53^R175H) |
| --- | --- | --- | --- | --- | --- |
| HHPWTHHQRWS [pCAP-20] | 4 | – | – | – | – |
| LRCLLLLIGRVG [pCAP-24] | – | 3 | 3 | – | – |
| YPTQGHLR [pCAP-36] | – | 2 | 2 | 4 | – |
| HANLHHT [pCAP-87] | – | – | 2 | – | – |
| IRILMFLIGCGRRRRRRRRR [pCAP-23R, pCAP-23 with poly arginine tail] | – | 3 | – | – | – |
| SFILFIRRGRLGRRRRRRRRR [pCAP-60R, pCAP-60 with poly arginine tail] | 4 | 3 | 2 | – | – |
| SFILFIRRGRLG [pCAP-60] | – | 3 | – | – | marked increase |
| myr-RRIRDPRILLLHFD [pCAP-325] | 4 | 4 | 3 | 4 | – |
| myr-RRKILFIRLMHNKH [pCAP-227, myristoylated peptide, similarity to GAS2] | 3 | 3 | 3 | 3 | – |
| HSSHHHPVHSWN [pCAP-83] | – | 5 | 2 | – | – |
| WNHHHSTPHPAHRRRRRR [pCAP-97R, pCAP-97 with poly arginine tail] | – | 4 | 3 | 4 | – |
| LRCLLLLIGRVGRRRRRRRR [pCAP-24R, pCAP-24 with poly arginine tail] | – | 3 | 3 | 4 | – |
| YRRLLIGMMWRRRRRRRRR [pCAP-68] | – | 3 | – | 4 | marked increase |
| IRILMFLIGCGR [pCAP-23] | – | 1 | – | – | – |
| LHSKTLVL [pCAP-17] | – | 3 | 3 | – | – |
| IRGRIIR [pCAP-54] | – | 2 | – | 4 | marked increase |
| myr-RRLIVRILKLPNPPER [pCAP-242] | 6 | 4 | 4 | 3 | – |
| IRGRIIRRRRRRRRR [pCAP-54R, pCAP-54 with poly arginine tail] | – | 2 | – | 4 | – |
| WNHHHSTPHPAH [pCAP-97] | – | 4 | 2 | 4 | marked increase |
| myr-PRVLPSPHTIHPSQYP [pCAP-229, myristoylated peptide, similarity to HIPK2] | 3 | 4 | 3 | – | – |
| myr-RRKHNKHRPEPDSDER [pCAP-221] | 6 | 2 | 3 | 5 | – |
